Values joined by “and” are separate entries in the source; they are usually repeats but may differ in a detail not shown here. Identical values can stand only once.
Experiments:
[1] = system: bleomycin-induced lung fibrosis; assay: Bleomycin-induced lung fibrosis mouse model; assay type: in vivo; details: BLM mice, Nintedanib 60 mpk po qd
Method: Adult male C57BL/6 mice (Taconic, Rensselaer, NY) were housed in a temperature and humidity-controlled facility with a 12 h light: 12-h dark cycle. Animals had ad libitum access to food (Purina Rodent Chow 5053, LabDiet, St. Louis, MO) and water. All procedures utilizing experimental animals were conducted in accordance with the Guide for the Care and Use of Laboratory Animals, and experimental procedures were reviewed and approved by the Institutional Animal Care and Use Committee at MRL, Kenilworth, NJ. For osmotic minipump implantation, TFA salt of MK-0429 was formulated in 50% DMSO/50% H2O at a concentration of 416 mg/mL. MK-0429 or vehicle solution were filled in minipumps (Alzet, # 1007D, flow rate 0.5 μL/h). Minipumps were placed in mice subcutaneously in a pocket on the back between the shoulder blades. A small incision was made and a subcutaneous pocket formed by blunt dissection. A sterile minipump was inserted into the subcutaneous pocket. The incision was closed with staples or non-absorbable suture or absorbable (subcuticular) suture. The minipumps were used for continuous drug delivery for 2 weeks. Mice at 12 ~ 13 weeks of age were randomized to 5 groups: saline, bleomycin instillation with vehicle (osmotic minipump), bleomycin instillation with MK-0429 treatment, bleomycin instillation with vehicle oral treatment, and bleomycin instillation with Nintedanib treatment. All mice were anaesthetized with isoflurane. Bleomycin was dosed by intra-tracheal (i.t) instillation in a volume of 50 µl, at a dose of 1unit /kg body weight. After instillation, mice were kept in a heads-up position for 2–5 min before putting into cages. MK-0429 (200 mg/kg) was administered by Osmotic pump from day 5 to day 14 and Nintedanib (60 mg/kg) was administered, p.o., q.d., for 14 days. Vehicle was dosed orally at 10 am daily from the day 5 to the end of the studies and dosing volume was 10 mL/kg. For plasma PK analysis, an aliquot of 50 μL plasma was spiked into a 96-well plate, and 200 μL of acetonitrile containing internal standard were added for protein precipitation. The mixture was vortexed, centrifuged at 4000 rpm for 20 min. 50 μL of supernatant were mixed with 200 μl H2O and the final solution were injected for LC–MS/MS analysis. The methods for quantitative analysis were developed on UPLC (Waters) chromatographic system equipped with an API4000 QTrap mass spectrometer (Applied Biosystems, Concord, Ontario, Canada). Analyst 1.5 software packages (Applied Biosystems) were used to control the LC–MS/MS system and data acquisition and processing. Upon completion of the study, animals were euthanized and tissues were collected for histological assessment. Lung tissues were perfused with 10% formalin, fixed for 24 h, and then paraffin embedded. Tissue sections were stained with hematoxylin & eosin (H&E) and Masson’s trichrome, subsequently evaluated under light microscope. The severity of histopathologic changes and fibrosis in the lung were graded as described previously by pathologists[51],[52]. Following deparaffinization and rehydration, each lung tissue section was processed to identify αSMA deposition by immunohistochemistry. The primary antibodies used were αSMA antibody from Sigma. The Aperio ScanScope XT Slide Scanner (Aperio Technologies) system was used to capture whole slide digital images with a 20 × objective. Digital images were managed using Aperio Spectrum. The positive stains were identified and quantified using a macro created from a color deconvolution algorithm (Aperio Technologies). Statistical analysis was performed by using One-way ANOVA followed by Tukey’s test.

[2] = Plasma total drug concentration in bleomycin model (LC-MS/MS); assay type: in vivo, mouse; details: 2 h after last dose, Day 19; MK-0429 200 mpk minipump, Nintedanib 60 mpk po qd; mean ± SE
Method: Mice at 12 ~ 13 weeks of age were randomized to 5 groups: saline, bleomycin instillation with vehicle (osmotic minipump), bleomycin instillation with MK-0429 treatment, bleomycin instillation with vehicle oral treatment, and bleomycin instillation with Nintedanib treatment. All mice were anaesthetized with isoflurane. Bleomycin was dosed by intra-tracheal (i.t) instillation in a volume of 50 µl, at a dose of 1unit /kg body weight. After instillation, mice were kept in a heads-up position for 2–5 min before putting into cages. MK-0429 (200 mg/kg) was administered by Osmotic pump from day 5 to day 14 and Nintedanib (60 mg/kg) was administered, p.o., q.d., for 14 days. Vehicle was dosed orally at 10 am daily from the day 5 to the end of the studies and dosing volume was 10 mL/kg. For plasma PK analysis, an aliquot of 50 μL plasma was spiked into a 96-well plate, and 200 μL of acetonitrile containing internal standard were added for protein precipitation. The mixture was vortexed, centrifuged at 4000 rpm for 20 min. 50 μL of supernatant were mixed with 200 μl H2O and the final solution were injected for LC–MS/MS analysis. The methods for quantitative analysis were developed on UPLC (Waters) chromatographic system equipped with an API4000 QTrap mass spectrometer (Applied Biosystems, Concord, Ontario, Canada). […]

[3] = system: normal human lung fibroblasts; assay: TGFβ-induced αSMA high-content imaging; assay type: cell-based; details: 10 μM, 30 min pre-treatment, TGFβ 5 ng/mL, 48 h
Method: (§1) Normal human lung fibroblasts (Lonza) and Primary Human IPF Lung Parenchymal Fibroblasts (Donor2) (BioIVT, #PCR-70-0214) were incubated at 37 °C and 5% CO2. To induce fibrotic response in primary cells, a final concentration of 5 ng/ml of recombinant human TGFβ1 (BioLegend, #580702) was added to the culture media and treated for 24 ~ 48 h. Anti-TGFβ neutralizing antibody (1D11) and the isotype control mouse IgG1 were from BioXcell. SB-525334 and bleomycin were from Sigma. MK-0429 was synthesized by Merck & Co., Inc., Kenilworth, NJ, USA. CHOK1-integrin stable lines were cultured in DMEM/F12, Glutamax (Gibco #10565018), 10% FBS (Gibco 310091148), 1 × Pen/Strep (Gibco 315140-148), and 6 ug/mL Puromycin (Gibco #A1113803).
(§2) Primary cells (passage 3–5) were grown on Cell carrier Ultra, col1 coated 96-well plates (Perkin Elmer, #6055700) at a density of 25,000 cells/well. Once the cells adhere, they were starved in serum free media for 24 h followed by addition of treatments i.e. 5 ng/mL TGFβ (Biolegend #580702) ± inhibitors. Cells were pre-treated with inhibitors for 30 min prior to the addition of TGFβ stimulation. 48hours post treatment, the cells were fixed in 4% methanol free paraformaldehyde (ThermoFisher Scientific #28908) for 20 min at room temperature and incubated with anti-alpha smooth muscle Actin antibody (Abcam #ab7817) at 1:4000 overnight at 4 °C. […]

[4] = system: IPF patient lung fibroblasts; assay: TGFβ-induced αSMA high-content imaging; assay type: cell-based, human; details: TGFβ 5 ng/mL, 48 h, read-out: IC50 TGFβ-mediated αSMA induction
Method: as §1, §2

[5] = treatment from day 5 for 14 days, MK-0429 200 mpk osmotic minipump, vs BLM-vehicle

| SMILES | TIMP-1 content in BALF ([1]; 14 days treatment, MK-0429 200 mpk minipump) | Modified Ashcroft score of mouse lung [1, 5] | Total inflammation area in mouse lungs [1, 5] | αSMA immunohistochemistry in lung [1, 5] | Body weight vs bleomycin group ([1]; MK-0429 200 mpk minipump) | Mean plasma total drug concentration [2] | αSMA intensity and percentage of stimulated cells following TGFβ treatment [3] | IC50 [4] [nM] |
| --- | --- | --- | --- | --- | --- | --- | --- | --- |
| COC(=O)c1ccc2c(c1)NC(=O)/C2=C(\Nc1ccc(N(C)C(=O)CN2CCN(C)CC2)cc1)c1ccccc1 [Nintedanib] | significantly decreased | significantly improved | decreased | significantly decreased | no significant body weight difference | 656.1 ng/mL and 656 ± 229 ng/mL |  |  |
| Cc1cccc(-c2[nH]c(C(C)(C)C)nc2-c2ccc3nccnc3c2)n1 [SB-525334] |  |  |  |  |  |  | significantly reduced | 56 ± 22 |

— article PMC7822819, “Discovery of a new class of integrin antibodies for fibrosis” (Scientific Reports, 2021)
